Activity calls are given as the source filed them.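 The calls were made as follows: active = compounds giving half or more protection of infected cells from virus-caused growth loss, again on retest; inactive = the rest.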
Test system: CEM cells HIV-1 protection, formazan growth assay
Assay: NCI AIDS Antiviral Assay
Details: for IC50: measured here: growth of uninfected CEM cells
Procedure, shortened: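 Human CEM cells, uninfected and HIV-1-infected, exposed to five drug concentrations; growth measured by soluble formazan assay and scored as percent protection from infection, with protecting compounds retested.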

Compound	EC50 [µM]	IC50 [µM]	outcome
C=C1CCC/C(=N/NC(N)=O)C12CC2	> 200	> 200	
CC(=O)n1nc(-c2[nH]c(C)c(-c3nn(C(C)=O)c(=S)o3)c2C)oc1=S	> 50.1	> 50.1	
c1ccc2c(c1)-c1ccccc1C2NC1=NCCO1	> 200	26.3	
CCOC(=O)C(CCSC)(CCSC)C(=O)OCC	> 200	> 200	
COc1ccc(C(=O)Nc2ccc(S(=O)(=O)NCC(=O)O)cc2)cc1			inactive
CCCCCCCCCCCCCCCCCC1=Nc2cc(C)c(C)cc2NC(=O)C1	> 100	> 100	
Clc1ccc(CCc2ccncn2)c(Cl)c1	> 398	38	
c1ccc(/C2=N\OCCCOc3ccccc32)cc1	> 200	> 200	
COC(=O)C(=O)C(C(=O)Nc1cccc(C)c1C)C1Sc2ccccc2NC1=O (configuration not stated)	> 17.4	16.6	
CC(C)=CCC/C(C)=C/CC/C(C)=C/Cc1c[nH]c2ccccc12	> 6.17	> 6.17	
O=C(ON(Cc1ccccc1)C(=O)C1C=CC=C1)C1=CCC=C1	> 17	> 17	
Cc1cn(C2C/C(=N\O)C(CO)O2)c(=O)[nH]c1=O (configuration not stated)	12.6	174	
O=NN(O)c1ccccc1.O=NN(O)c1ccccc1.[Cu]			inactive
N#Cc1cc2ccccc2n(Cc2ccccc2)c1=O	> 200	> 200	
NC(N)=N/N=C(/c1nc2ccc([N+](=O)[O-])cc2[nH]c1=O)C(O)c1ccco1 (configuration not stated)	> 251	141	
CN1C(=O)c2cccc3cc([N+](=O)[O-])cc(c23)C1=O	> 53.7	10.2	
CCOC(=O)/C(=C\c1ccc([N+](=O)[O-])cc1)C(C)=O	> 257	64.6	
O=C1Cc2c(-c3ccccc3)cc(-c3ccc4ccccc4c3)nc2-c2ccccc2N1	> 200	51.3	
OC1(O)/C=C\CCCCC/C=C\1	> 200	129	

Compound	EC50 [µM]	IC50 [µM]	outcome
CC(C)Nc1n[nH]c(=O)n1C(C)C	> 200	> 200	
C=CC1=CC(C)C[C@]1(O)C(=O)OC (some centres not stated)	> 1380	708	
COc1ccc(/C=C2\N=C(c3ccccc3)OC2=O)c(OCc2ccccc2)c1	> 9.77	> 9.77	
CCC1(CC)c2ccccc2C(CC)(CC)[N+]1(C)C	> 200	85.1	
CC/C(=C(\C#N)c1ccc(OCCN(CC)CC)cc1)c1ccc(OCCN(CC)CC)cc1	> 200	1.86	
CCCCCCCCNC(=S)/N=C/c1c(O)c2ccccc2oc1=O	> 200	38.9	
CCOC(OCC)N1C(=O)C2(C(OCC)OCC)CC3C(OC(=O)N3N)c3cccc1c32 (configuration not stated)			inactive
CCCNC(=O)c1nc(SC)sc1NC(=O)c1ccc(OC)cc1	> 200	> 200	
N#Cc1c2nc3ccccc3nc2n2ccc3ccccc3c12	> 200	> 200	
[O-][n+]1c2ccccc2[n+]([O-])c2c3ccccc3[nH]c21	> 20.9	> 20.9	
CC(=O)OCC1OC(n2cc(I)c(=O)[nH]c2=O)C(OC(C)=O)C(OC(C)=O)C1OC(C)=O (configuration not stated)	> 437	282	
N#Cc1c(-c2ccc(Cl)c(Cl)c2)c(-c2ccc(Cl)c(Cl)c2)nn(CC(=O)O)c1=O	> 200	55	
COc1ccc(/C=C/c2cc(OC)c(OC)c(OC)c2)cc1O	> 10	0.145	
CC1CC(O)c2ccccc2O1 (configuration not stated)	> 200	> 200	
CC(C)(C)c1ccc2c(c1)OCc1n[nH]c(n1)COc1cc(C(C)(C)C)ccc1OCCOCCO2	> 200	7.24	
S=c1[nH]c(=S)c2[nH]cnc2[nH]1	> 200	85.1	
COc1cc(C[C@H]2C(=O)OCC2Cc2ccc(OC)c(OC)c2)ccc1O (some centres not stated)	> 200	5.5	
CCOC(=O)CCn1[nH]c(=O)c(Cl)c(Cl)c1=O			inactive
N#CCCC1C(=O)CCCC1=O	> 200	> 200	

— PubChem BioAssay AID179 (DTP/NCI, 2004)
